Measured values published in patent publication EP0469548B1, “4-Amino-delta4-steroids and their use as 5alpha-reductase inhibitors” (MERRELL PHARMACEUTICALS INC., priority 1990, dated 1992).

Target: T1, steroid 5α-reductase enzyme (Homo sapiens, UniProt P31213)
T1 construct: Microsomal preparations of the steroid 5α-reductase enzyme (protein) were obtained from human prostate tissue; from tissue; host or cells: human prostate tissue (microsomal preparation)
T1 sequence (P31213 1-254): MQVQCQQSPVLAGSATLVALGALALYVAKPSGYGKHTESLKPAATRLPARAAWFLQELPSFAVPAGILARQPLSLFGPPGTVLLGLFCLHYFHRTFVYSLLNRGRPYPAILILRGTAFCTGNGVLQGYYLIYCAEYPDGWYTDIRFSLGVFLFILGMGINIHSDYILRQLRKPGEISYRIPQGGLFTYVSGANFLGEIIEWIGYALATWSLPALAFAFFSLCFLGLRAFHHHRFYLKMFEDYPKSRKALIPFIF
Assay: 5α-reductase inhibition in microsomal preparations (conversion of testosterone to dihydrotestosterone, HPLC)
Type: biochemical
Procedure: Microsomal preparations of the steroid 5α-reductase enzyme (protein) were obtained from human prostate tissue and stored in aliquots. Protein concentration was determined prior to use of the samples. In the method itself, individual assays for 5α-reductase activity contained 0.1M phosphate citrate buffer, pH 5.6, 1mM EDTA, 7 to 22 µg of microsomal protein, 1mM NADPH, 5 mM glucose-6-phosphate, 1 IU/ml glucose-6-phosphate dehydrogenase, 1,2-³H-testosterone, and test compound, dissolved in dimethyl sulfoxide and then diluted in phosphate-citrate buffer to yield a final assay concentration of 0.1% (v/v) dimethyl sulfoxide. The same buffer and the same quantity of dimethyl sulfoxide, without any test compound was used for the control assays. The total assay volume was 100 µl and assays were performed in duplicate. The reaction was initiated by the addition of the testosterone, and incubated for 30 minutes at 25°C. The assay is linear with time to 30 minutes.
Depending on the nature of the inhibition, testosterone concentration was typically varied from 0.15 µM (approximately 0.5 Km) to 10 Km with radioactive label constant at 0.15 µCi per assay. The amount of test compound added was varied to provide final concentrations of 1 nM to 100 µM. The reaction was quenched by the addition of 50 volumes of chloroform:methanol (2:1). The steroids were then extracted and separated by high pressure liquid chromatography and the amounts of testosterone and dihydrotestosterone present were measured to determine the percent conversion of testosterone to dihydrotestosterone and to calculate the 5α-reductase activity. The activity of the test compound was then expressed as the IC₅₀, or the concentration of test compound that produced a 50% inhibition of the testosterone conversion. When compounds of the present invention were tested in this way, the following results were observed: […]

| SMILES | IC50 [nM] |
| --- | --- |
| CC(C)N(C(=O)[C@H]1CC[C@H]2[C@@H]3CCC4=C(N)C(=O)CC[C@]4(C)[C@H]3CC[C@]12C)C(C)C [4-Amino-N,N-bis(1-methylethyl)-3-oxoandrost-4-ene-17β-carboxamide] | 104 |
| CC(C)(C)NC(=O)[C@H]1CC[C@H]2[C@@H]3CCC4=C(N)C(=O)CC[C@]4(C)[C@H]3CC[C@]12C [4-Amino-N-(1,1-dimethylethyl)-3-oxoandrost-4-ene-17β-carboxamide] | 59 |
| CC(=O)[C@H]1CC[C@H]2[C@@H]3CCC4=C(N)C(=O)CC[C@]4(C)[C@H]3CC[C@]12C [4-Aminopregn-4-ene-3,20-dione] | 50 |
| C[C@H](CO)[C@H]1CC[C@H]2[C@@H]3CCC4=C(N)C(=O)CC[C@]4(C)[C@H]3CC[C@]12C [(20S)-4-Amino-21-hydroxy-20-methylpregn-4-en-3-one] | 54 |
